Assay results reported in patent US20240218022A1, “ANTI-VISTA MACROCYCLIC PEPTIDES AND COMPOSITIONS” (BRISTOL-MYERS SQUIBB COMPANY, priority 2022, published 2024).
Like-named read-outs stand apart in the source and are kept apart here. Values belong to the molecule of their own block, whether it stands above or below them. Starred links: 1 amine or outer side, 2 acyl side, 3 side chain; linkers in the order of their positions; H or OH if unused. Positions of bridges follow the written chain, without caps; N, C: chain ends. Non-standard residues stand in square brackets, D forms with d. Residues, ends and D or L forms follow the SMILES beside them. Phe(4-F) = N[C@@H](Cc1ccc(F)cc1)C(=O)O; γGlu = O=C(O)[C@H](CCC(=O)[*:2])N[*:1]; 2Nal = N[C@@H](Cc1ccc2ccccc2c1)C(=O)O; βAsp = O=C(O)[C@H](CC(=O)[*:2])N[*:1]; Tic = O=C(O)[C@@H]1Cc2ccccc2CN1; Cit = NC(=O)NCCC[C@H](N)C(=O)O; Ahp(2) = CCCCC[C@H](N)C(=O)O; NMeNle = CCCC[C@H](NC)C(=O)O; Tle = CC(C)(C)[C@H](N)C(=O)O; NMeV = CN[C@H](C(=O)O)C(C)C; Pip = O=C(O)[C@@H]1CCCCN1; NHexGly = CCCCCCNCC(=O)O; Nle = CCCC[C@H](N)C(=O)O; Orn = NCCC[C@H](N)C(=O)O; Aun = NCCCCCCCCCCC(=O)O; AEEA = NCCOCCOCC(=O)O

Target: T1, mouse VISTA (mVISTA) (Mus musculus, UniProt Q9D659)
T1 construct: expressed in transfected cells; host or cells: Human embryonic kidney 293T cells
T1 sequence (Q9D659 33-308): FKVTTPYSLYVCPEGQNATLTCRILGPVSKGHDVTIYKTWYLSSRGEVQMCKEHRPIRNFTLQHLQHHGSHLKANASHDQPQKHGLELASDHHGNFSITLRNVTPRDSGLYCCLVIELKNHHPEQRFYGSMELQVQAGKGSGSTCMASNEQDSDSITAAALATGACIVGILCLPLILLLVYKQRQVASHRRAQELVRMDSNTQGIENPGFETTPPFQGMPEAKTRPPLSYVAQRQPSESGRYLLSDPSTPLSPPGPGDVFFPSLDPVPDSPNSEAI
Assay: Cell-Based Binding High-Content Assay For mVISTA (HC CBA mVISTA)
Method in brief: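 Read-out: Alexa 647–streptavidin signal imaged on fixed, Hoechst-stained mVISTA-293T cells, with IC50 taken from a four-parameter logistic curve. Compounds competed with 2 nM biotinylated peptide for 30 min at room temperature, tested under both no-wash and wash (1 h compound, media exchange, 1 h) formats.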

[1] = cell-based binding high-content assay, mVISTA, the 16th table, read-out: HC CBA mVISTA IC50

SMILES: CCCCCCN1CC(=O)N[C@@H](Cc2ccc(O)cc2)C(=O)N[C@@H](CCCC)C(=O)N[C@@H](CC(=O)O)C(=O)N[C@@H](CCCNC(=N)N)C(=O)N[C@@H](CC(C)C)C(=O)N[C@@H](CCCCC)C(=O)N2CCC[C@H]2C(=O)N[C@@H](C(C)C)C(=O)N[C@@H](CC(=O)O)C(=O)N[C@H](C(=O)N[C@@H](CC(=O)O)C(N)=O)CSCC(=O)N[C@@H](Cc2ccccc2)C(=O)N[C@@H](Cc2c[nH]c3ccccc23)C(=O)N[C@@H](CC(=O)O)C1=O [Example 1352] ({CH2CO}-FWD[NHexGly]Y[Nle]DRL[Ahp(2)]PVDCD-NH2; thioether N-14)
IC50 (read-out: HC CBA mVISTA IC50): 12.3 nM

SMILES: CCCCCCN1CC(=O)N[C@@H](Cc2ccc(O)cc2)C(=O)N[C@@H](C(C)C)C(=O)NCC(=O)N[C@@H](CCCNC(N)=O)C(=O)N[C@@H](CC(C)C)C(=O)N[C@@H](CCCCC)C(=O)N2CCC[C@H]2C(=O)N[C@@H](C(C)C)C(=O)N[C@@H](CC(=O)O)C(=O)N[C@H](C(=O)N[C@@H](CO)C(N)=O)CSCC(=O)N[C@@H](Cc2ccc3ccccc3c2)C(=O)N[C@@H](Cc2ccc(O)cc2)C(=O)N[C@@H](CC(=O)O)C1=O [Ex 1316] ({CH2CO}-[2Nal]YD[NHexGly]YVG[Cit]L[Ahp(2)]PVDCS-NH2; thioether N-14)
IC50 [1]: 10.6 nM

SMILES: CCCCCCN1CC(=O)N[C@@H](Cc2ccc(O)cc2)C(=O)N[C@@H](CCCCC)C(=O)N[C@@H](CC(N)=O)C(=O)N[C@@H](CCCNC(=N)N)C(=O)N(C)[C@@H](CCCC)C(=O)N[C@@H](CCCCC)C(=O)N2CCC[C@H]2C(=O)N[C@@H](C(C)C)C(=O)N[C@@H](CC(=O)O)C(=O)N[C@H](C(=O)NCC(=O)O)CSCC(=O)N[C@@H](Cc2ccccc2)C(=O)N[C@@H](Cc2c[nH]c3ccccc23)C(=O)N[C@@H](CC(=O)O)C1=O [Example 1386] ({CH2CO}-FWD[NHexGly]Y[Ahp(2)]NR[NMeNle][Ahp(2)]PVDCG-OH; thioether N-14)
IC50 (read-out: HC CBA mVISTA IC50): 8.8 nM

SMILES: CCCCCCN1CC(=O)N[C@@H](Cc2ccc(O)cc2)C(=O)N[C@@H](CCCC)C(=O)N[C@@H](CC(N)=O)C(=O)N[C@@H](CCCNC(=N)N)C(=O)N2Cc3ccccc3C[C@H]2C(=O)N[C@@H](CCCCC)C(=O)N2CCC[C@H]2C(=O)N[C@@H](C(C)C)C(=O)N[C@@H](CC(=O)O)C(=O)N[C@H](C(=O)NCC(N)=O)CSCC(=O)N[C@@H](Cc2ccc3ccccc3c2)C(=O)N[C@@H](Cc2ccc(O)cc2)C(=O)N[C@@H](CC(=O)O)C1=O [Ex 1307] ({CH2CO}-[2Nal]YD[NHexGly]Y[Nle]NR[Tic][Ahp(2)]PVDCG-NH2; thioether N-14)
IC50 [1]: 11.4 nM

SMILES: CCCCCCN1CC(=O)N[C@@H](Cc2ccc(O)cc2)C(=O)N[C@@H](CCCCC)C(=O)N[C@@H](CC(=O)O)C(=O)N[C@@H](CCCNC(=N)N)C(=O)N(C)[C@@H](CCCC)C(=O)N[C@@H](CCCCC)C(=O)N2CCC[C@H]2C(=O)N[C@@H](C(C)C)C(=O)N[C@@H](CC(=O)O)C(=O)N[C@H](C(=O)N[C@H](CC(=O)O)C(N)=O)CSCC(=O)N[C@@H](Cc2ccccc2)C(=O)N[C@@H](Cc2ccc(O)cc2)C(=O)N[C@@H](CC(=O)O)C1=O [Example 1076] ({CH2CO}-FYD[NHexGly]Y[Ahp(2)]DR[NMeNle][Ahp(2)]PVDC[dD]-NH2; thioether N-14)
IC50 (293T cells expressing mouse VISTA, competition with biotinylated peptide (2 nM), read-out: CBA mVISTA IC50): 21.5 nM

Now from value to molecule:

IC50 (read-out: HC CBA mVISTA IC50): 28.6 nM
SMILES: CCCCCCN1CC(=O)N[C@@H](Cc2ccc(O)cc2)C(=O)N[C@@H](CCCC)C(=O)N[C@@H](CC(N)=O)C(=O)N[C@@H](CCCNC(=N)N)C(=O)N(C)[C@@H](CCCC)C(=O)N[C@@H](CCCCC)C(=O)N2CCCC[C@H]2C(=O)N[C@@H](C(C)C)C(=O)N[C@@H](CO)C(=O)N[C@H](C(=O)NCC(N)=O)CSCC(=O)N[C@@H](Cc2ccccc2)C(=O)N[C@@H](Cc2c[nH]c3ccccc23)C(=O)N[C@@H](CC(=O)O)C1=O [compound 1145] ({CH2CO}-FWD[NHexGly]Y[Nle]NR[NMeNle][Ahp(2)][Pip]VSCG-NH2; thioether N-14)

IC50 (the 20th table, scaffold drawing 23, read-out: HC CBA mVISTA IC50): 22.2 nM
SMILES: CCCCCCN1CC(=O)N[C@@H](Cc2ccc(O)cc2)C(=O)N[C@@H](CCCC)C(=O)N[C@@H](CC(N)=O)C(=O)N[C@@H](CCCNC(=N)N)C(=O)N[C@@H](CC(C)C)C(=O)N[C@@H](CCCCC)C(=O)N2CCC[C@H]2C(=O)N[C@@H](C(C)C)C(=O)N[C@@H](CO)C(=O)N[C@H](C(=O)NCC(=O)O)CSCC(=O)N[C@@H](Cc2ccc(F)cc2)C(=O)N[C@@H](Cc2ccc(O)cc2)C(=O)N[C@@H](CC(=O)O)C1=O [compound 1462] ({CH2CO}-[Phe(4-F)]YD[NHexGly]Y[Nle]NRL[Ahp(2)]PVSCG-OH; thioether N-14)

IC50 (cell-based binding high-content assay, mVISTA, the 15th table, read-out: HC CBA mVISTA IC50): 15.7 nM
SMILES: CCCCCCN1CC(=O)N[C@@H](Cc2ccc(O)cc2)C(=O)N[C@@H](CCCCC)C(=O)N[C@@H](CC(N)=O)C(=O)N[C@@H](CCCNC(=N)N)C(=O)N(C)[C@@H](CCCC)C(=O)N[C@@H](CCCCC)C(=O)N2CCC[C@H]2C(=O)N[C@@H](C(C)C)C(=O)N[C@@H](CC(=O)O)C(=O)N[C@H](C(=O)N[C@@H](CO)C(N)=O)CSCC(=O)N[C@@H](Cc2ccc3ccccc3c2)C(=O)N[C@@H](Cc2c[nH]c3ccccc23)C(=O)N[C@@H](CC(=O)O)C1=O [compound 1254] ({CH2CO}-[2Nal]WD[NHexGly]Y[Ahp(2)]NR[NMeNle][Ahp(2)]PVDCS-NH2; thioether N-14)

IC50 (read-out: HC CBA mVISTA IC50): 18 nM
SMILES: CCCCCCN1CC(=O)N[C@@H](Cc2ccc(O)cc2)C(=O)N[C@@H](CC(C)C)C(=O)N[C@@H](CC(N)=O)C(=O)N[C@@H](CCCN)C(=O)N(C)[C@@H](C(C)C)C(=O)N[C@@H](CCCCC)C(=O)N2CCC[C@H]2C(=O)N[C@@H](C(C)(C)C)C(=O)N[C@@H](CO)C(=O)N[C@H](C(=O)N[C@@H](CCC(=O)NCCCCCCCCCCC(=O)O)C(=O)O)CSCC(=O)N[C@@H](Cc2ccccc2)C(=O)N[C@@H](Cc2ccc(O)cc2)C(=O)N[C@@H](CC(=O)O)C1=O [Example 2137] ({CH2CO}-FYD[NHexGly]YLN[Orn][NMeV][Ahp(2)]P[Tle]SC[γGlu][Aun]-OH; thioether N-14)

IC50 (read-out: HC CBA mVISTA IC50): 21.2 nM
SMILES: CCCCCCN1CC(=O)N[C@@H](Cc2ccc(O)cc2)C(=O)N[C@@H](CC(C)C)C(=O)N[C@@H](CC(N)=O)C(=O)N[C@@H](CCCNC(=N)N)C(=O)N(C)[C@@H](CCCC)C(=O)N[C@@H](CCCCC)C(=O)N2CCC[C@H]2C(=O)N[C@@H](C(C)(C)C)C(=O)N[C@@H](C(C)C)C(=O)N[C@H](C(=O)NCCOCCOCC(=O)N[C@@H](CCC(=O)NCCOCCOCC(=O)NCCCCCCCCCCC(=O)O)C(=O)O)CSCC(=O)N[C@@H](Cc2ccccc2)C(=O)N[C@@H](Cc2ccc(O)cc2)C(=O)N[C@@H](CC(=O)O)C1=O [compound 2277] ({CH2CO}-FYD[NHexGly]YLNR[NMeNle][Ahp(2)]P[Tle]VC[AEEA][γGlu][AEEA][Aun]-OH; thioether N-14)

IC50 (cell-based binding high-content assay, mVISTA, read-out: HC CBA miPrISTA IC50): 22.1 nM
SMILES: CCCCCCN1CC(=O)N[C@@H](Cc2ccc(O)cc2)C(=O)N[C@@H](C)C(=O)N[C@@H](CC(N)=O)C(=O)N[C@@H](CCCN)C(=O)N(C)[C@@H](CCCC)C(=O)N[C@@H](CCCCC)C(=O)N2CCC[C@H]2C(=O)N[C@@H](C(C)(C)C)C(=O)N[C@@H](CO)C(=O)N[C@H](C(=O)N[C@@H](CC(=O)NCCOCCOCC(=O)N[C@@H](CC(=O)O)C(=O)NCCOCCOCC(=O)NCCCCCCCCCCC(=O)O)C(=O)O)CSCC(=O)N[C@@H](Cc2ccccc2)C(=O)N[C@@H](Cc2c[nH]c3ccccc23)C(=O)N[C@@H](CC(=O)O)C1=O [compound 2093] ({CH2CO}-FWD[NHexGly]YAN[Orn][NMeNle][Ahp(2)]P[Tle]SC[βAsp][AEEA]D[AEEA][Aun]-OH; thioether N-14)
